# Laboratory results taken from PubChem BioAssay AID180 (DTP/NCI, 2004).
# Several values for one entry are separate records, joined by “and”; a condition that tells them apart may be missing. Equal entries are not always repeated.
# Test system: BDF1 mice, Adenocarcinoma 755 s.c., tumor weight T/C
# Test: NCI In Vivo Anticancer Drug Screen. Data for tumor model Adenocarcinoma 755 (subcutaneous) in B6D2F1 (BDF1) mice
# Settings: endpoint: mean tumor weight, higher = larger tumour
# Experimental: The antitumor activity of compounds was measured in mice bearing transplantable tumors. Survival or tumor size were measured and the results are expressed as the measurement made in the treated group (T) divided by the measurement made in the vehicle treated control group (C). The tumor model used in this assay is Adenocarcinoma 755 (subcutaneous) in B6D2F1 (BDF1) mice
smiles,measurement,setting,value
CCCCCSc1nc(N)nc2nc[nH]c12,T/C,"dose: 0.04 mg/kg/injection, schedule: Q01DX011 (ip), vehicle: alkali diluted with saline",114 % of control
same,T/C,"dose: 0.08 mg/kg/injection, schedule: Q01DX011 (ip), vehicle: alkali diluted with saline",119 % of control
same,T/C,"dose: 0.16 mg/kg/injection, schedule: Q01DX011 (ip), vehicle: alkali diluted with saline",95 % of control
same,T/C,"dose: 0.32 mg/kg/injection, schedule: Q01DX011 (ip), vehicle: alkali diluted with saline",80 % of control
same,T/C,"dose: 0.63 mg/kg/injection, schedule: Q01DX011 (ip), vehicle: alkali diluted with saline",112 % of control
same,T/C,"dose: 1.25 mg/kg/injection, schedule: Q01DX011 (ip), vehicle: alkali diluted with saline",97 % of control
same,T/C,"dose: 1.5 mg/kg/injection, schedule: Q01DX011 (ip), vehicle: saline",79 % of control
same,T/C,"dose: 2.5 mg/kg/injection, schedule: Q01DX011 (ip), vehicle: alkali diluted with saline",85 % of control
same,T/C,"dose: 3.1 mg/kg/injection, schedule: Q01DX011 (ip), vehicle: saline",100 % of control
same,T/C,"dose: 5.0 mg/kg/injection, schedule: Q01DX011 (ip), vehicle: alkali diluted with saline",106 % of control
same,T/C,"dose: 6.25 mg/kg/injection, schedule: Q01DX011 (ip), vehicle: saline",83 % of control
same,T/C,"dose: 10.0 mg/kg/injection, schedule: Q01DX011 (ip), vehicle: alkali diluted with saline",82 % of control
same,T/C,"dose: 12.5 mg/kg/injection, schedule: Q01DX011 (ip), vehicle: saline",43 % of control
same,T/C,"dose: 25.0 mg/kg/injection, schedule: Q01DX011 (ip), vehicle: saline",47 % of control
same,T/C,"dose: 50.0 mg/kg/injection, schedule: Q01DX011 (ip), vehicle: saline",7 % of control
same,T/C,"dose: 100.0 mg/kg/injection, schedule: Q01DX011 (ip), vehicle: saline",3 % of control
O[C@H](CN1CC1)[C@@H](O)CN1CC1,T/C,"dose: 0.19 mg/kg/injection, schedule: Q01DX011 (ip), vehicle: methylcellulose (MC)",50 % of control
same,T/C,"dose: 0.38 mg/kg/injection, schedule: Q01DX011 (ip), vehicle: methylcellulose (MC)",47 % of control
same,T/C,"dose: 0.75 mg/kg/injection, schedule: Q01DX011 (ip), vehicle: methylcellulose (MC)",13 % of control
same,T/C,"dose: 1.5 mg/kg/injection, schedule: Q01DX011 (ip), vehicle: methylcellulose (MC)",8 % of control
CC12CCC3C(CCC4CC=CCC43C)C1CCC2=O (stereo not drawn),T/C,"dose: 62.55 mg/kg/injection, schedule: Q01DX011 (sc), vehicle: steriod suspending solution",90 % of control
same,T/C,"dose: 125.0 mg/kg/injection, schedule: Q01DX011 (sc), vehicle: steriod suspending solution",99 % of control
same,T/C,"dose: 250.0 mg/kg/injection, schedule: Q01DX011 (sc), vehicle: steriod suspending solution",60 % of control
same,T/C,"dose: 500.0 mg/kg/injection, schedule: Q01DX011 (sc), vehicle: steriod suspending solution",84 % of control
CCCn1cnc2c(=S)nc(N)[nH]c21,T/C,"dose: 0.03 mg/kg/injection, schedule: Q01DX011 (ip), vehicle: methylcellulose (MC)",103 % of control
same,T/C,"dose: 0.06 mg/kg/injection, schedule: Q01DX011 (ip), vehicle: methylcellulose (MC)",82 % of control
same,T/C,"dose: 0.11 mg/kg/injection, schedule: Q01DX011 (ip), vehicle: methylcellulose (MC)",45 % of control
same,T/C,"dose: 0.22 mg/kg/injection, schedule: Q01DX011 (ip), vehicle: methylcellulose (MC)",6 % of control and 7 % of control
same,T/C,"dose: 0.44 mg/kg/injection, schedule: Q01DX011 (ip), vehicle: methylcellulose (MC)",8 % of control
same,T/C,"dose: 0.88 mg/kg/injection, schedule: Q01DX011 (ip), vehicle: methylcellulose (MC)",4 % of control
same,T/C,"dose: 1.75 mg/kg/injection, schedule: Q01DX011 (ip), vehicle: methylcellulose (MC)",4 % of control
CC(C)Cn1cnc2c(SCc3ccc(Cl)cc3Cl)nc(N)nc21,T/C,"dose: 9.0 mg/kg/injection, schedule: Q01DX011 (ip), vehicle: other",78 % of control
same,T/C,"dose: 12.5 mg/kg/injection, schedule: Q01DX011 (ip), vehicle: methylcellulose (MC)",41 % of control
same,T/C,"dose: 18.0 mg/kg/injection, schedule: Q01DX011 (ip), vehicle: other",78 % of control
same,T/C,"dose: 25.0 mg/kg/injection, schedule: Q01DX011 (ip), vehicle: methylcellulose (MC)",65 % of control
same,T/C,"dose: 37.0 mg/kg/injection, schedule: Q01DX011 (ip), vehicle: other",92 % of control
same,T/C,"dose: 38.0 mg/kg/injection, schedule: Q01DX011 (ip), vehicle: methylcellulose (MC)",74 % of control
same,T/C,"dose: 50.0 mg/kg/injection, schedule: Q01DX011 (ip), vehicle: methylcellulose (MC)",87 % of control
same,T/C,"dose: 75.0 mg/kg/injection, schedule: Q01DX011 (ip), vehicle: methylcellulose (MC)",113 % of control
same,T/C,"dose: 100.0 mg/kg/injection, schedule: Q01DX011 (ip), vehicle: methylcellulose (MC)",69 % of control
same,T/C,"dose: 150.0 mg/kg/injection, schedule: Q01DX011 (ip), vehicle: methylcellulose (MC)",80 % of control
same,T/C,"dose: 200.0 mg/kg/injection, schedule: Q01DX011 (ip), vehicle: other",7 % of control and 15 % of control
same,T/C,"dose: 300.0 mg/kg/injection, schedule: Q01DX011 (ip), vehicle: methylcellulose (MC)",59 % of control
same,T/C,"dose: 400.0 mg/kg/injection, schedule: Q01DX011 (ip), vehicle: other",24 % of control
same,T/C,"dose: 600.0 mg/kg/injection, schedule: Q01DX011 (ip), vehicle: methylcellulose (MC)",91 % of control
Nc1nc(SC2CCCCC2)c2[nH]cnc2n1,T/C,"dose: 1.0 mg/kg/injection, schedule: Q01DX011 (ip), vehicle: carboxymethylcellulose (CMC)",60 % of control
same,T/C,"dose: 5.0 mg/kg/injection, schedule: Q01DX011 (ip), vehicle: carboxymethylcellulose (CMC)",83 % of control
same,T/C,"dose: 20.0 mg/kg/injection, schedule: Q01DX011 (ip), vehicle: carboxymethylcellulose (CMC)",4 % of control and 9 % of control
same,T/C,"dose: 40.0 mg/kg/injection, schedule: Q01DX011 (ip), vehicle: carboxymethylcellulose (CMC)",1 % of control
same,T/C,"dose: 80.0 mg/kg/injection, schedule: Q01DX011 (ip), vehicle: carboxymethylcellulose (CMC)",1 % of control
same,T/C,"dose: 160.0 mg/kg/injection, schedule: Q01DX011 (ip), vehicle: carboxymethylcellulose (CMC)",2 % of control
O=C(Nc1nc2c(ncn2C2CC(OC(=O)c3ccccc3)C(COC(=O)c3ccccc3)O2)c(=O)[nH]1)c1ccccc1 (stereo not drawn),T/C,"dose: 30.0 mg/kg/injection, schedule: Q01DX011 (ip), vehicle: carboxymethylcellulose (CMC)",103 % of control
same,T/C,"dose: 60.0 mg/kg/injection, schedule: Q01DX011 (ip), vehicle: carboxymethylcellulose (CMC)",94 % of control
same,T/C,"dose: 120.0 mg/kg/injection, schedule: Q01DX011 (ip), vehicle: carboxymethylcellulose (CMC)",113 % of control
same,T/C,"dose: 240.0 mg/kg/injection, schedule: Q01DX011 (ip), vehicle: carboxymethylcellulose (CMC)",124 % of control
CN(Cc1cnc2nc(N)nc(N)c2n1)c1ccc(C(=O)N[C@@H](CCC(=O)O)C(=O)O)cc1,T/C,"dose: 0.56 mg/kg/injection, schedule: Q01DX011 (ip), vehicle: carboxymethylcellulose (CMC)",94 % of control
same,T/C,"dose: 0.84 mg/kg/injection, schedule: Q01DX011 (ip), vehicle: carboxymethylcellulose (CMC)",57 % of control
same,T/C,"dose: 1.0 mg/kg/injection, schedule: Q01DX011 (ip), vehicle: other",77 % of control
same,T/C,"dose: 1.05 mg/kg/injection, schedule: Q01DX011 (ip), vehicle: carboxymethylcellulose (CMC)",48 % of control
same,T/C,"dose: 1.13 mg/kg/injection, schedule: Q01DX011 (ip), vehicle: carboxymethylcellulose (CMC)",48 % of control
same,T/C,"dose: 1.4 mg/kg/injection, schedule: Q01DX011 (ip), vehicle: carboxymethylcellulose (CMC)",36 % of control
same,T/C,"dose: 2.0 mg/kg/injection, schedule: Q01DX011 (ip), vehicle: carboxymethylcellulose (CMC)",49 % of control
same,T/C,"dose: 2.0 mg/kg/injection, schedule: Q01DX011 (ip), vehicle: other",43 % of control
same,T/C,"dose: 2.1 mg/kg/injection, schedule: Q01DX011 (ip), vehicle: carboxymethylcellulose (CMC)",27 % of control
same,T/C,"dose: 2.25 mg/kg/injection, schedule: Q01DX011 (ip), vehicle: carboxymethylcellulose (CMC)",96 % of control
same,T/C,"dose: 4.5 mg/kg/injection, schedule: Q01DX011 (ip), vehicle: carboxymethylcellulose (CMC)",48 % of control
same,T/C,"dose: 263.0 micrograms/kg/injection, schedule: Q01DX011 (ip), vehicle: carboxymethylcellulose (CMC)",66 % of control
same,T/C,"dose: 525.0 micrograms/kg/injection, schedule: Q01DX011 (ip), vehicle: carboxymethylcellulose (CMC)",53 % of control
same,T/C,"dose: 563.0 micrograms/kg/injection, schedule: Q01DX011 (ip), vehicle: carboxymethylcellulose (CMC)",63 % of control
same,T/C,"dose: 1050.0 micrograms/kg/injection, schedule: Q01DX011 (ip), vehicle: carboxymethylcellulose (CMC)",68 % of control
same,T/C,"dose: 1125.0 micrograms/kg/injection, schedule: Q01DX011 (ip), vehicle: carboxymethylcellulose (CMC)",97 % of control
same,T/C,"dose: 2100.0 micrograms/kg/injection, schedule: Q01DX011 (ip), vehicle: carboxymethylcellulose (CMC)",31 % of control
same,T/C,"dose: 2250.0 micrograms/kg/injection, schedule: Q01DX011 (ip), vehicle: carboxymethylcellulose (CMC)",68 % of control
